Laboratory results: the NIST ThermoML archive (doi:10.1016/j.jct.2006.05.008)

Experiment: molar heat capacity at constant pressure
Settings: 101.33 kPa

CCC[n+]1ccn(C)c1.[Br-] [1-methyl-3-propylimidazolium bromide]
Settings | molar heat capacity at constant pressure [J/K/mol]
79.74 K, Crystal, Vacuum adiabatic calorimetry | 92.59
79.94 K, Crystal, Vacuum adiabatic calorimetry | 92.76
81.02 K, Metastable crystal, Small (less than 1 g) adiabatic calorimetry | 99.02
81.27 K, Crystal, Vacuum adiabatic calorimetry | 93.84
81.34 K, Glass, Small (less than 1 g) adiabatic calorimetry | 99.34
82.19 K, Crystal, Vacuum adiabatic calorimetry | 94.55
82.6 K, Crystal, Vacuum adiabatic calorimetry | 94.86
83.24 K, Metastable crystal, Small (less than 1 g) adiabatic calorimetry | 100.47
83.87 K, Glass, Small (less than 1 g) adiabatic calorimetry | 101.14
83.93 K, Crystal, Vacuum adiabatic calorimetry | 95.59
84.2 K, Crystal, Vacuum adiabatic calorimetry | 95.76
85.27 K, Crystal, Vacuum adiabatic calorimetry | 96.54
85.49 K, Metastable crystal, Small (less than 1 g) adiabatic calorimetry | 101.89
86.22 K, Crystal, Vacuum adiabatic calorimetry | 97.26
86.42 K, Glass, Small (less than 1 g) adiabatic calorimetry | 103.04
86.6 K, Crystal, Vacuum adiabatic calorimetry | 97.57
87.75 K, Metastable crystal, Small (less than 1 g) adiabatic calorimetry | 103.44
87.94 K, Crystal, Vacuum adiabatic calorimetry | 98.49
88.23 K, Crystal, Vacuum adiabatic calorimetry | 98.81
89 K, Glass, Small (less than 1 g) adiabatic calorimetry | 105.01
89.27 K, Crystal, Vacuum adiabatic calorimetry | 99.53
90.04 K, Metastable crystal, Small (less than 1 g) adiabatic calorimetry | 104.98
90.61 K, Crystal, Vacuum adiabatic calorimetry | 100.47
91.6 K, Glass, Small (less than 1 g) adiabatic calorimetry | 106.89
91.95 K, Crystal, Vacuum adiabatic calorimetry | 101.38
92.27 K, Crystal, Vacuum adiabatic calorimetry | 101.66
92.34 K, Metastable crystal, Small (less than 1 g) adiabatic calorimetry | 106.48
93.29 K, Crystal, Vacuum adiabatic calorimetry | 102.41
94.22 K, Glass, Small (less than 1 g) adiabatic calorimetry | 108.72
94.29 K, Crystal, Vacuum adiabatic calorimetry | 103.09
94.64 K, Crystal, Vacuum adiabatic calorimetry | 103.36
94.66 K, Metastable crystal, Small (less than 1 g) adiabatic calorimetry | 107.94
95.98 K, Crystal, Vacuum adiabatic calorimetry | 104.28
96.31 K, Crystal, Vacuum adiabatic calorimetry | 104.51
96.86 K, Glass, Small (less than 1 g) adiabatic calorimetry | 110.58
97 K, Metastable crystal, Small (less than 1 g) adiabatic calorimetry | 109.41
97.33 K, Crystal, Vacuum adiabatic calorimetry | 105.24
98.33 K, Crystal, Vacuum adiabatic calorimetry | 105.88
98.67 K, Crystal, Vacuum adiabatic calorimetry | 106.05
99.35 K, Metastable crystal, Small (less than 1 g) adiabatic calorimetry | 110.84
99.51 K, Glass, Small (less than 1 g) adiabatic calorimetry | 112.37
100.03 K, Crystal, Vacuum adiabatic calorimetry | 106.92
100.36 K, Crystal, Vacuum adiabatic calorimetry | 107.18
101.38 K, Crystal, Vacuum adiabatic calorimetry | 107.81
101.71 K, Metastable crystal, Small (less than 1 g) adiabatic calorimetry | 112.27
102.18 K, Glass, Small (less than 1 g) adiabatic calorimetry | 114.14
102.39 K, Crystal, Vacuum adiabatic calorimetry | 108.44
102.74 K, Crystal, Vacuum adiabatic calorimetry | 108.69
104.09 K, Crystal, Vacuum adiabatic calorimetry | 109.46
104.09 K, Metastable crystal, Small (less than 1 g) adiabatic calorimetry | 113.67
104.42 K, Crystal, Vacuum adiabatic calorimetry | 109.77
104.87 K, Glass, Small (less than 1 g) adiabatic calorimetry | 115.91
105.45 K, Crystal, Vacuum adiabatic calorimetry | 110.36
106.45 K, Crystal, Vacuum adiabatic calorimetry | 111.06
106.47 K, Metastable crystal, Small (less than 1 g) adiabatic calorimetry | 115.09
106.81 K, Crystal, Vacuum adiabatic calorimetry | 111.31
107.56 K, Glass, Small (less than 1 g) adiabatic calorimetry | 117.68
108.17 K, Crystal, Vacuum adiabatic calorimetry | 112.14
108.48 K, Crystal, Vacuum adiabatic calorimetry | 112.42
108.88 K, Metastable crystal, Small (less than 1 g) adiabatic calorimetry | 116.5
109.53 K, Crystal, Vacuum adiabatic calorimetry | 112.92
110.28 K, Glass, Small (less than 1 g) adiabatic calorimetry | 119.33
110.52 K, Crystal, Vacuum adiabatic calorimetry | 113.6
110.89 K, Crystal, Vacuum adiabatic calorimetry | 113.71
111.29 K, Metastable crystal, Small (less than 1 g) adiabatic calorimetry | 117.82
112.25 K, Crystal, Vacuum adiabatic calorimetry | 114.5
112.57 K, Crystal, Vacuum adiabatic calorimetry | 114.76
113 K, Glass, Small (less than 1 g) adiabatic calorimetry | 121
113.61 K, Crystal, Vacuum adiabatic calorimetry | 115.32
113.71 K, Metastable crystal, Small (less than 1 g) adiabatic calorimetry | 119.15
114.61 K, Crystal, Vacuum adiabatic calorimetry | 115.9
114.97 K, Crystal, Vacuum adiabatic calorimetry | 116.19
115.74 K, Glass, Small (less than 1 g) adiabatic calorimetry | 122.66
116.15 K, Metastable crystal, Small (less than 1 g) adiabatic calorimetry | 120.5
116.34 K, Crystal, Vacuum adiabatic calorimetry | 116.93
116.65 K, Crystal, Vacuum adiabatic calorimetry | 117.03
117.71 K, Crystal, Vacuum adiabatic calorimetry | 117.69
118.48 K, Glass, Small (less than 1 g) adiabatic calorimetry | 124.31
118.59 K, Metastable crystal, Small (less than 1 g) adiabatic calorimetry | 121.83
118.69 K, Crystal, Vacuum adiabatic calorimetry | 118.24
119.07 K, Crystal, Vacuum adiabatic calorimetry | 118.47
120.44 K, Crystal, Vacuum adiabatic calorimetry | 119.22
120.73 K, Crystal, Vacuum adiabatic calorimetry | 119.36
121.04 K, Metastable crystal, Small (less than 1 g) adiabatic calorimetry | 123.15
121.24 K, Glass, Small (less than 1 g) adiabatic calorimetry | 125.94
121.82 K, Crystal, Vacuum adiabatic calorimetry | 120.01
122.78 K, Crystal, Vacuum adiabatic calorimetry | 120.51
123.19 K, Crystal, Vacuum adiabatic calorimetry | 120.74
123.49 K, Metastable crystal, Small (less than 1 g) adiabatic calorimetry | 124.47
124.01 K, Glass, Small (less than 1 g) adiabatic calorimetry | 127.58
124.56 K, Crystal, Vacuum adiabatic calorimetry | 121.49
124.82 K, Crystal, Vacuum adiabatic calorimetry | 121.64
125.93 K, Crystal, Vacuum adiabatic calorimetry | 122.24
125.95 K, Metastable crystal, Small (less than 1 g) adiabatic calorimetry | 125.81
126.78 K, Glass, Small (less than 1 g) adiabatic calorimetry | 129.18
126.87 K, Crystal, Vacuum adiabatic calorimetry | 122.8
127.3 K, Crystal, Vacuum adiabatic calorimetry | 122.93
128.42 K, Metastable crystal, Small (less than 1 g) adiabatic calorimetry | 127.1
128.67 K, Crystal, Vacuum adiabatic calorimetry | 123.68
128.92 K, Crystal, Vacuum adiabatic calorimetry | 123.91
129.56 K, Glass, Small (less than 1 g) adiabatic calorimetry | 130.84
130.04 K, Crystal, Vacuum adiabatic calorimetry | 124.38
130.89 K, Metastable crystal, Small (less than 1 g) adiabatic calorimetry | 128.38
130.97 K, Crystal, Vacuum adiabatic calorimetry | 125.11
131.41 K, Crystal, Vacuum adiabatic calorimetry | 125.15
132.34 K, Glass, Small (less than 1 g) adiabatic calorimetry | 132.48
132.79 K, Crystal, Vacuum adiabatic calorimetry | 125.91
133.03 K, Crystal, Vacuum adiabatic calorimetry | 126.19
133.37 K, Metastable crystal, Small (less than 1 g) adiabatic calorimetry | 129.68
134.16 K, Crystal, Vacuum adiabatic calorimetry | 126.6
135.08 K, Crystal, Vacuum adiabatic calorimetry | 127.08
135.13 K, Glass, Small (less than 1 g) adiabatic calorimetry | 134.09
135.53 K, Crystal, Vacuum adiabatic calorimetry | 127.32
135.85 K, Metastable crystal, Small (less than 1 g) adiabatic calorimetry | 130.98
136.16 K, Crystal, Vacuum adiabatic calorimetry | 127.66
136.91 K, Crystal, Vacuum adiabatic calorimetry | 128.04
137.14 K, Crystal, Vacuum adiabatic calorimetry | 128.2
137.92 K, Glass, Small (less than 1 g) adiabatic calorimetry | 135.74
138.28 K, Crystal, Vacuum adiabatic calorimetry | 128.82
138.34 K, Metastable crystal, Small (less than 1 g) adiabatic calorimetry | 132.27
138.66 K, Crystal, Vacuum adiabatic calorimetry | 129
139.66 K, Crystal, Vacuum adiabatic calorimetry | 129.53
140.72 K, Crystal, Vacuum adiabatic calorimetry | 130.08
140.72 K, Glass, Small (less than 1 g) adiabatic calorimetry | 137.41
140.83 K, Metastable crystal, Small (less than 1 g) adiabatic calorimetry | 133.54
141.03 K, Crystal, Vacuum adiabatic calorimetry | 130.25
142.4 K, Crystal, Vacuum adiabatic calorimetry | 130.91
142.78 K, Crystal, Vacuum adiabatic calorimetry | 131.16
143.33 K, Metastable crystal, Small (less than 1 g) adiabatic calorimetry | 134.81
143.52 K, Glass, Small (less than 1 g) adiabatic calorimetry | 139.08
143.79 K, Crystal, Vacuum adiabatic calorimetry | 131.72
144.84 K, Crystal, Vacuum adiabatic calorimetry | 132.23
145.17 K, Crystal, Vacuum adiabatic calorimetry | 132.41
145.82 K, Metastable crystal, Small (less than 1 g) adiabatic calorimetry | 136.13
